# In publication PMC11114115 (Molecular Pharmacology, 2024):
# Molecular target: human M3R (M3 muscarinic acetylcholine receptor) (Homo sapiens, UniProt P20309)
# Test: cell-based
# human M3R (M3 muscarinic acetylcholine receptor), sequence (P20309 whole entry): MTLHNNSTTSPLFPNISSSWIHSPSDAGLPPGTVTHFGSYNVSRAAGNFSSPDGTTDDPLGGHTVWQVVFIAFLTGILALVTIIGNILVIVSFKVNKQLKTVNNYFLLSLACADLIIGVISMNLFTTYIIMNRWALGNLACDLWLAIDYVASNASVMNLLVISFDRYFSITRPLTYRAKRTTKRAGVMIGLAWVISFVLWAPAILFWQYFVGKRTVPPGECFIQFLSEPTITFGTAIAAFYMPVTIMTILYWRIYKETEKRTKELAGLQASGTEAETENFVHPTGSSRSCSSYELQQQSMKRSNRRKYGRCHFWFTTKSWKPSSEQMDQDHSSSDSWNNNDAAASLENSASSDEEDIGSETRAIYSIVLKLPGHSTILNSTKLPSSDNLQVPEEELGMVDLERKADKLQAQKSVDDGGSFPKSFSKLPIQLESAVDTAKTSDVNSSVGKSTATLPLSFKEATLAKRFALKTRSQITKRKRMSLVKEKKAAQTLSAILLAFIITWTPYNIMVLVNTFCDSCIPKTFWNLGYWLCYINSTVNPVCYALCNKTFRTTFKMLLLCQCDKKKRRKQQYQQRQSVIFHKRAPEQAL
structure (smiles),measurement,value
C[N+](C)(C)CC#CCN1CCCC1=O [Oxotremorine-M],EC50,12.6 nM
